From patent US4235776A, “Tetrahydro-2H-benzo[c]pyrroles” (Eli Lilly and Company, priority 1979, dated 1980)
Structures can show the parent of a compound that is named as a salt.

Experiments:
mouse = assay: intraperitoneal toxicity in the mouse; format: in vivo
Procedure: In using the compounds of this invention to inhibit prolactin secretion or to treat Prakinson's syndrome or for other pharmacologic action, a pharmaceutically active compound according to Formula I above, or a salt thereof with a pharmaceutically-acceptable acid, is administered to a subject suffering from Parkinsonism or in need of having their prolactin level reduced in an amount effective to alleviate some of the symptoms of Parkinsonism or to reduce an elevated prolactin level. Oral administration is preferred. If parenteral administration is used, the injection is preferably by the subcutaneous route using an appropriate pharmaceutical formulation. […] In particular, with intravenous or intramuscular administration, a water soluble pharmaceutically-acceptable salt is employed. For oral administration, a pharmaceutically active compound according to Formula I either as the free base or in the form of a salt thereof can also be mixed with standard pharmaceutical excipients and loaded into empty telescoping gelatin capsules or pressed into tablets. The oral dosage range is from about 0.01 to 10 mg/kg of mammalian weight and the parenteral dose range from about 0.0025 to 2.5 mg/kg of mammalian weight.

[1] = system: 6-hydroxydopamine-lesioned rats; assay: turning behavior in 6-hydroxydopamine-lesioned rats (dopamine agonist activity); format: in vivo, rat; conditions: 1 mg/kg intraperitoneal
Excerpt: In this test, nigro-neostriatal-lesioned rats are employed prepared by the procedure of Ungerstedt and Arbuthnott, Brain Res, 24, 485 (1970). A compound having dopamine agonist activity upon injection causes the rats to turn in circles contralateral to the side of the lesion. After a latency period, which varies from compound to compound, the number of turns is counted over a 15-minute period.

prolactin = assay: inhibition of prolactin secretion in reserpine-treated male rats (serum prolactin); format: in vivo, Sprague-Dawley rat; conditions: intraperitoneal, one hour after treatment, reserpine-pretreated rats
Procedure: The compounds of this invention are also useful as prolactin inhibitors and as such can be employed in the treatment of inappropriate lactation, such as postpartum lactation, and of galactorrhea.
Adult male rats of the Sprague-Dawley strain weighing about 200 g. were housed in an air-conditioned room with controlled lighting (lights on 6 a.m.-8 p.m.) and fed lab chow and water ad libitum. Each rat received an intraperitoneal injection of 2.0 mg. of reserpine in aqueous suspension 18 hours before administration of the isoindole. The purpose of the reserpine was to keep prolactin levels uniformly elevated. The compounds under test were dissolved in water and were injected intraperitoneally at doses ranging from 5 mg/kg down to 50 mcg/kg. Each compound was administered at each dose level to a group of 10 rats, and a control group of 10 intact males received an equivalent amount of solvent. One hour after treatment all rats were killed by decapitation, and 150 μl aliquots of serum were assayed for prolactin.
The difference between the prolactin level of the treated rats and prolactin level of the control rats divided by the prolactin level of the control rats gives the percent inhibition of prolactin secretion attributable to the compounds of this invention. In the table, column 1 gives the name of the compound; and columns 2-4 the percent prolactin inhibition at the given dose level.

SMILES	lethality (mouse; dosages of 100-300 mg/kg, intraperitoneal)	deaths (mouse; intraperitoneal dosages of 10-30 mg/kg)	rats exhibiting turning behavior [1]	average turns per rat ([1]; turns counted over a 15-minute period after latency) [turns per rat]	Percent Inhibition of Prolactin at a Given Dose Level (prolactin; 5 mg/kg) [%]	Percent Inhibition of Prolactin at a Given Dose Level (prolactin; 50 mcg/kg) [%]	Percent Inhibition of Prolactin at a Given Dose Level (prolactin; 500 mcg/kg) [%]
CCCN(CCC)C1CCc2c[nH]cc2C1 (racemic) [dl-5-di-n-propylamino-4,5,6,7-tetrahydro-2H-benzo[c]pyrrole maleate]	fatal	no deaths	1/3	34	91	20	47
CCN(CC)C1CCc2c[nH]cc2C1 (racemic) [dl-5-diethylamino-4,5,6,7-tetrahydro-2H-benzo[c]pyrrole maleate]	–	–	–	–	23	–	25
